The record followed here is patent publication US6008226A, “Substituted N-arylmethyl and heterocylylmethyl-1H-pyrazolo[3,4-b]quinolin-4-amines and compositions and methods of use thereof” (Sanofi-Synthelabo, priority 1998, dated 1999).

This assay relates to Spontaneously hypertensive rats. Kind of assay: reversing or reducing nitrate-induced tolerance in spontaneously hypertensive rats. The assay is classed as in vivo, rat. The method, then:
Spontaneously hypertensive rats (17-25 weeks of age) are made nitroglycerin tolerant by repeated administration of high doses of nitroglycerin (100 mg/kg, s.c., 3 times/day for 3 consecutive days). To confirm tolerance challenge doses of nitroglycerin are administered intravenously at doses ranging from 1-300 μg/kg and the maximum change in mean arterial pressure (MAP) for each dose is recorded. Groups of tolerant rats are then pretreated with the compounds of the invention (tolerant pretreated group) or with vehicle (0.05 N NaOH) (tolerant vehicle pretreated group) intravenously 5-10 minutes prior to administration of challenge doses of nitroglycerin. The administration of challenge doses of nitroglycerin to non-tolerant rats (the non-tolerant group) causes a dose-dependent decrease in MAP of between 10 to 40 mm Hg. […] It is expected that the administration of challenge doses of nitroglycerin to tolerant rats which have been pretreated with the compounds of the invention (tolerant pretreated group) should result in varying degrees of restoration of the hypotensive response. The area under the dose-MAP curve is then calculated for the non-tolerant group and for the tolerant vehicle pretreated group and the tolerant pretreated group. The percent reversal of nitrate-inducedtolerance is then calculated as follows:
Percent Reversal=(AUCtol-pretreated -AUCtol-veh)/(AUCnontol […]

The structures appear in SMILES notation.

For `O=[N+]([O-])OCC(CO[N+](=O)[O-])O[N+](=O)[O-]` [nitroglycerin], for the setting “non-tolerant rats, nitroglycerin challenge 1-300 μg/kg iv”, the “dose-dependent decrease in MAP” value is 10 to 40 mm Hg. Also, under “tolerant vehicle pretreated group, 1-300 μg/kg iv”, the “hypotensive response to challenge doses of nitroglycerin” value is recorded as “significant reduction of the hypotensive response”.
